Measured values as given in US8748461B2, “Metalloenzyme inhibitor compounds” (Viamet Pharmaceuticals, Inc., priority 2011, dated 2014).
In brackets after ≈: the same amount, converted by molar mass.

Key:
[1] = tested on: Septoria tritici (ATCC 26517); assay: Minimum Inhibitory Concentration (MIC) vs. Septoria tritici; type: cell-based; conditions: Zymoseptoria tritici, ATCC26517, 168 h; 50% reduction in growth of S. tritici; 22° C., seven days; read-out: Septoria Rating (MIC)
How it was run: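 Growth inhibition of S. tritici by CLSI-based filamentous-fungus microdilution, 2-fold series 16 to 0.016 μg/mL in RPMI-1640/MOPS with 2% DMSO. Inoculum approximately 5×10^4 cfu/mL; plates incubated 22° C, seven days, dark, unshaken.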

[2] = tested on: Puccinia recondita tritici = Puccinia triticina; assay: Fungicidal activity vs. leaf rust on wheat plants; type: in vivo; conditions: 50 ppm spray on wheat (Yuma), inoculated the following day, evaluated 7-9 days later; read-out: Puccinia Rating (% Disease Control @ 50 ppm)
Description: D. Evaluation of Fungicidal Activity Vs. Leaf Rust (Causal Agent Puccinia recondita Tritici=Puccinia triticina; Bayer code PUCCRT). […] Each pot contained 3-8 seedlings. These plants were sprayed until wet with the formulated test compounds. The compounds were formulated at 50 ppm in 10 vol. % acetone plus 90 vol. % Triton X water (deionized water 99.99 wt %+0.01 wt % Triton X100), giving a “formulated test compound.” Formulated test compounds were applied to plants using a turn table sprayer fitted with two opposing air atomization nozzles which delivered approximately 1500 L/ha of spray volume. On the following day, the leaves were inoculated with an aqueous spore suspension of Puccinia recondita tritici and the plants were kept in high humidity overnight to permit spores to germinate and infect the leaf. The plants were then transferred to a greenhouse until disease developed on untreated control plants. Disease severity was evaluated 7-9 days later, depending on the speed of disease development. In each case of Table 3, the Puccinia rating scale is as follows: […]

OC(Cn1cncn1)(c1ccc(F)cc1F)C(F)(F)c1ccc(OCc2cccc(F)c2F)cn1 (stereo not shown) [Compound 45, 1-(5-((2,3-Difluorobenzyl)oxy)pyridin-2-yl)-2-(2,4-difluorophenyl)-1,1-difluoro-3-(1H-1,2,4-triazol-1-yl)propan-2-ol]
MIC [1]: ≤ 0.5 µg/mL | pest or weed control at 50 ppm [2]: 80 to 100%

OC(Cn1cnnn1)(c1ccc(F)cc1F)C(F)(F)c1ccc(OCc2ccccc2F)cn1 (stereo not shown) [Compound 46, 2-(2,4-Difluorophenyl)-1,1-difluoro-1-(5-((2-fluorobenzyl)oxy)pyridin-2-yl)-3-(1H-tetrazol-1-yl)propan-2-ol]
MIC [1]: ≤ 0.5 µg/mL | pest or weed control at 50 ppm [2]: 80 to 100%

CC(Oc1ccc(C(F)(F)C(O)(Cn2cnnn2)c2ccc(F)cc2F)nc1)C(F)(F)F (stereo not shown) [Compound 47, 2-(2,4-Difluorophenyl)-1,1-difluoro-3-(1H-tetrazol-1-yl)-1-(5-((1,1,1-trifluoropropan-2-yl)oxy)pyridin-2-yl)propan-2-ol]
MIC [1]: ≤ 0.5 µg/mL | pest or weed control at 50 ppm [2]: 80 to 100%

OC(Cn1cnnn1)(c1ccc(F)cc1F)C(F)(F)c1ccc(OCc2cccs2)cn1 (stereo not shown) [Compound 49, 2-(2,4-Difluorophenyl)-1,1-difluoro-3-(1H-tetrazol-1-yl)-1-(5-(thiophen-2-ylmethoxy)pyridin-2-yl)propan-2-ol]
MIC [1]: ≤ 0.5 µg/mL | pest or weed control at 50 ppm [2]: 80 to 100%

N#Cc1ccc(COc2ccc(C(F)(F)C(O)(Cn3cnnn3)c3ccc(F)cc3F)nc2)nc1 (stereo not shown) [Compound 50, 6-(((6-(2-(2,4-Difluorophenyl)-1,1-difluoro-2-hydroxy-3-(1H-tetrazol-1-yl)propyl)pyridin-3-yl)oxy)methyl)nicotinonitrile]
MIC [1]: ≤ 0.5 µg/mL | pest or weed control at 50 ppm [2]: 80 to 100%

N#Cc1cccc(COc2ccc(C(F)(F)C(O)(Cn3cnnn3)c3ccc(F)cc3F)nc2)c1 (stereo not shown) [Compound 52, 3-(((6-(2-(2,4-Difluorophenyl)-1,1-difluoro-2-hydroxy-3-(1H-tetrazol-1-yl)propyl)pyridin-3-yl)oxy)methyl)benzonitrile]
MIC [1]: ≤ 0.5 µg/mL | pest or weed control at 50 ppm [2]: 80 to 100%

OC(Cn1cnnn1)(c1ccc(Cl)cc1F)C(F)(F)c1ccc(OCC2CC2)cn1 (stereo not shown) [Compound 54, 2-(4-Chloro-2-fluorophenyl)-1-(5-(cyclopropylmethoxy)pyridin-2-yl)-1,1-difluoro-3-(1H-tetrazol-1-yl)propan-2-ol]
MIC [1]: ≤ 0.5 µg/mL | pest or weed control at 50 ppm [2]: 80 to 100%

N#Cc1ccc(COc2ccc(C(F)(F)C(O)(Cn3cnnn3)c3ccc(Cl)cc3F)nc2)cc1 (stereo not shown) [Compound 55, 4-(((6-(2-(4-Chloro-2-fluorophenyl)-1,1-difluoro-2-hydroxy-3-(1H-tetrazol-1-yl)propyl)pyridin-3-yl)oxy)methyl)benzonitrile]
MIC [1]: ≤ 0.5 µg/mL | pest or weed control at 50 ppm [2]: 80 to 100%

N#Cc1ccc(COc2ccc(C(F)(F)C(O)(Cn3cnnn3)c3ccc(F)cc3F)nc2)c(F)c1 (stereo not shown) [Compound 57, 4-(((6-(2-(2,4-Difluorophenyl)-1,1-difluoro-2-hydroxy-3-(1H-tetrazol-1-yl)propyl)pyridin-3-yl)oxy)methyl)-3-fluorobenzonitrile]
MIC [1]: ≤ 0.5 µg/mL | pest or weed control at 50 ppm [2]: 80 to 100%

N#Cc1ccc(F)c(COc2ccc(C(F)(F)C(O)(Cn3cnnn3)c3ccc(F)cc3F)nc2)c1 (stereo not shown) [Compound 59, 3-(((6-(2-(2,4-Difluorophenyl)-1,1-difluoro-2-hydroxy-3-(1H-tetrazol-1-yl)propyl)pyridin-3-yl)oxy)methyl)-4-fluorobenzonitrile]
MIC [1]: ≤ 0.5 µg/mL | pest or weed control at 50 ppm [2]: 80 to 100%

N#Cc1ccc(COc2ccc(C(F)(F)C(O)(Cn3cnnn3)c3ccc(Cl)cc3F)nc2)nc1 (stereo not shown) [Compound 61, 6-(((6-(2-(4-Chloro-2-fluorophenyl)-1,1-difluoro-2-hydroxy-3-(1H-tetrazol-1-yl)propyl)pyridin-3-yl)oxy)methyl)nicotinonitrile]
MIC [1]: ≤ 0.5 µg/mL | pest or weed control at 50 ppm [2]: 80 to 100%

N#Cc1cc(COc2ccc(C(F)(F)C(O)(Cn3cnnn3)c3ccc(F)cc3F)nc2)ccc1F (stereo not shown) [Compound 65, 5-(((6-(2-(2,4-Difluorophenyl)-1,1-difluoro-2-hydroxy-3-(1H-tetrazol-1-yl)propyl)pyridin-3-yl)oxy)methyl)-2-fluorobenzonitrile]
MIC [1]: ≤ 0.5 µg/mL | pest or weed control at 50 ppm [2]: 80 to 100%

N#Cc1cccc(COc2ccc(C(F)(F)C(O)(Cn3cnnn3)c3ccc(F)cc3F)nc2)c1F (stereo not shown) [Compound 67, 3-(((6-(2-(2,4-Difluorophenyl)-1,1-difluoro-2-hydroxy-3-(1H-tetrazol-1-yl)propyl)pyridin-3-yl)oxy)methyl)-2-fluorobenzonitrile]
MIC [1]: ≤ 0.5 µg/mL | pest or weed control at 50 ppm [2]: 80 to 100%

CC(C)COc1ccc(C(F)(F)C(O)(Cn2cnnn2)c2ccc(Cl)cc2F)nc1 (stereo not shown) [Compound 69, 2-(4-Chloro-2-fluorophenyl)-1,1-difluoro-1-(5-isobutoxypyridin-2-yl)-3-(1H-tetrazol-1-yl)propan-2-ol]
MIC [1]: ≤ 0.5 µg/mL | pest or weed control at 50 ppm [2]: 80 to 100%

OC(Cn1cnnn1)(c1ccc(Cl)cc1F)C(F)(F)c1ccc(OCC(F)(F)F)cn1 (stereo not shown) [Compound 71, 2-(4-Chloro-2-fluorophenyl)-1,1-difluoro-3-(1H-tetrazol-1-yl)-1-(5-(2,2,2-trifluoroethoxy)pyridin-2-yl)propan-2-ol]
MIC [1]: ≤ 0.5 µg/mL | pest or weed control at 50 ppm [2]: 80 to 100%

N#Cc1ccc(COc2ccc(C(F)(F)C(O)(Cn3cnnn3)c3ccc(F)cc3F)nc2)s1 (stereo not shown) [Compound 73, 5-(((6-(2-(2,4-Difluorophenyl)-1,1-difluoro-2-hydroxy-3-(1H-tetrazol-1-yl)propyl)pyridin-3-yl)oxy)methyl)thiophene-2-carbonitrile]
MIC [1]: ≤ 0.5 µg/mL | pest or weed control at 50 ppm [2]: 80 to 100%

OC(Cn1cnnn1)(c1ccc(F)cc1F)C(F)(F)c1ccc(Oc2ccc(C(F)(F)F)cc2)cn1 (stereo not shown) [Compound 75, 2-(2,4-Difluorophenyl)-1,1-difluoro-3-(1H-tetrazol-1-yl)-1-(5-(4-(trifluoromethyl)phenoxy)pyridin-2-yl)propan-2-ol]
MIC [1]: ≤ 0.5 µg/mL | pest or weed control at 50 ppm [2]: 80 to 100%

OC(Cn1cnnn1)(c1ccc(F)cc1F)C(F)(F)c1ccc(Oc2ccc(OC(F)(F)F)cc2)cn1 (stereo not shown) [Compound 76, 2-(2,4-Difluorophenyl)-1,1-difluoro-3-(1H-tetrazol-1-yl)-1-(5-(4-(trifluoromethoxy)phenoxy)pyridin-2-yl)propan-2-ol]
MIC [1]: ≤ 0.5 µg/mL | pest or weed control at 50 ppm [2]: 80 to 100%

OC(Cn1cnnn1)(c1ccc(F)cc1F)C(F)(F)c1ccc(Oc2cccc(F)c2)cn1 (stereo not shown) [Compound 77, 2-(2,4-Difluorophenyl)-1,1-difluoro-1-(5-(3-fluorophenoxy)pyridin-2-yl)-3-(1H-tetrazol-1-yl)propan-2-ol]
MIC [1]: ≤ 0.5 µg/mL | pest or weed control at 50 ppm [2]: 60 to 79%

N#Cc1cccc(Oc2ccc(C(F)(F)C(O)(Cn3cnnn3)c3ccc(F)cc3F)nc2)c1 (stereo not shown) [Compound 78, 3-((6-(2-(2,4-Difluorophenyl)-1,1-difluoro-2-hydroxy-3-(1H-tetrazol-1-yl)propyl)pyridin-3-yl)oxy)benzonitrile]
MIC [1]: ≤ 0.5 µg/mL | pest or weed control at 50 ppm [2]: 80 to 100%

N#Cc1ccc(Oc2ccc(C(F)(F)C(O)(Cn3cnnn3)c3ccc(Cl)cc3F)nc2)cc1 (stereo not shown) [Compound 79, 4-((6-(2-(4-Chloro-2-fluorophenyl)-1,1-difluoro-2-hydroxy-3-(1H-tetrazol-1-yl)propyl)pyridin-3-yl)oxy)benzonitrile]
MIC [1]: ≤ 0.5 µg/mL | pest or weed control at 50 ppm [2]: 80 to 100%

N#Cc1ccc(Oc2ccc(C(F)(F)C(O)(Cn3cnnn3)c3ccc(Cl)cc3F)nc2)cc1F (stereo not shown) [Compound 81, 4-((6-(2-(4-Chloro-2-fluorophenyl)-1,1-difluoro-2-hydroxy-3-(1H-tetrazol-1-yl)propyl)pyridin-3-yl)oxy)-2-fluorobenzonitrile]
MIC [1]: ≤ 0.5 µg/mL | pest or weed control at 50 ppm [2]: 80 to 100%

N#Cc1ccc(COc2ccc(C(F)(F)C(O)(Cn3ncnn3)c3ccc(F)cc3F)nc2)cc1 (stereo not shown) [Compound 83, 4-(((6-(2-(2,4-Difluorophenyl)-1,1-difluoro-2-hydroxy-3-(2H-tetrazol-2-yl)propyl)pyridin-3-yl)oxy)methyl)benzonitrile]
MIC [1]: 1.5 to 4 µg/mL (≈ 3.1 to 8.26 µM) | pest or weed control at 50 ppm [2]: 40 to 59%

OC(Cn1cnnn1)(c1ccc(F)cc1F)C(F)(F)c1ccc(Oc2cccc(Cl)c2)cn1 (stereo not shown) [Compound 84, 1-(5-(3-Chlorophenoxy)pyridin-2-yl)-2-(2,4-difluorophenyl)-1,1-difluoro-3-(1H-tetrazol-1-yl)propan-2-ol]
MIC [1]: ≤ 0.5 µg/mL | pest or weed control at 50 ppm [2]: 80 to 100%

COc1cccc(Oc2ccc(C(F)(F)C(O)(Cn3cnnn3)c3ccc(F)cc3F)nc2)c1 (stereo not shown) [Compound 85, 2-(2,4-Difluorophenyl)-1,1-difluoro-1-(5-(3-methoxyphenoxy)pyridin-2-yl)-3-(1H-tetrazol-1-yl)propan-2-ol]
MIC [1]: ≤ 0.5 µg/mL | pest or weed control at 50 ppm [2]: 80 to 100%

OC(Cn1cnnn1)(c1ccc(F)cc1F)C(F)(F)c1ccc(Oc2ccc(F)c(F)c2)cn1 (stereo not shown) [Compound 86, 1-(5-(3,4-Difluorophenoxy)pyridin-2-yl)-2-(2,4-difluorophenyl)-1,1-difluoro-3-(1H-tetrazol-1-yl)propan-2-ol]
MIC [1]: ≤ 0.5 µg/mL | pest or weed control at 50 ppm [2]: 80 to 100%
